Test results from US20080234291A1, “Mitratapide Oral Solution” (priority 2004, published 2008).
Values after ≈ are worked out from the molar mass of the structure shown.

Experiments:
[1] = solubility of mitratapide in water; type: physicochemical
Method: Since mitratapide has a solubility of less than 0.5 μg/ml in water, which can be increased to 0.4 mg/ml at a pH of 1.2, the presence of a solubilizing agent is necessary for the preparation of aqueous solutions. Hydroxypropyl-β-cyclodextrin (HP-β-CD) is a suitable solubilizing agent with which mitratapide forms higher order water soluble complexes. In order to obtain an aqueous solution comprising mitratapide with a concentration of 5 mg/ml it is necessary to use HP-β-CD in an amount of 250 mg/ml and adjusting the pH to 4. Furthermore it is necessary to add an antimicrobial preservative to these aqueous HP-β-CD solutions to protect them against microbial spoilage during manufacture or use. The addition of benzoic acid, a well known antimicrobial preservative for acidic aqueous solutions having a pH ≦4.5, however caused a precipitation of mitratapide probably due to a competition between mitratapide and benzoic acid for inclusion into the HP-β-CD cavity. To compensate, the HP-β-CD concentration had to be increased from 250 mg/ml to 400 mg/ml to solubilize mitratapide at a concentration of 5 mg/ml. […]

[2] = solubility of mitratapide in different pharmaceutical solvents; type: physicochemical; settings: about 22° C.

solubility ([1]; water at pH 1.2, pH 1.2, simulated gastric fluid, pH of 1.2, read-out: solubility in water at pH 1.2): 400 µg/mL (≈ 0.558 mM)
solubility ([1]; water, read-out: solubility in water): < 0.5 µg/mL
solubility ([2]; caprylic/capric/linoleic acid triglyceride (Miglyol 818), oil or lipid, caprylidcapridlinoleic acid triglyceride (Miglyol 818 ®)): < 5000 µg/mL
solubility ([2]; oil or lipid, apricot Kernel oil PEG-6 complex (Labrafil 1944CS ®)): < 5000 µg/mL
solubility ([2]; oil or lipid, caprylic/capric acid triglyceride (Miglyol 812 ®)): < 5000 µg/mL
solubility ([2]; oil or lipid, caprylic/capric diester of propylene glycol): < 5000 µg/mL
solubility ([2]; oil or lipid, caprylic/capric/succinic acid triglyceride (Miglyol 829 ®)): < 5000 µg/mL
solubility ([2]; oil or lipid, caprylocaproyl-8 glyceride (Labrasol ®)): > 5000 µg/mL
solubility ([2]; oil or lipid, corn oil PEG-6 complex (Labrafil 2125CS ®)): < 5000 µg/mL
solubility ([2]; oil or lipid, sesame oil): < 50 µg/mL
solubility ([2]; organic solvent or mixture, diethylene glycol monoethyl ether (Transcutol ®)): > 5000 µg/mL
solubility ([2]; organic solvent or mixture, dimethyl isosorbide (2,5-di-O-methyl-1,4:3,6-dianhydro D-glucitol)): > 5000 µg/mL
solubility ([2]; propylene glycol monolaurate (Lauroglycol), oil or lipid, Dropylene glycol monolaurate (Lauroglycol ®)): > 5000 µg/mL
SMILES: CCC(C)n1ncn(-c2ccc(N3CCN(c4ccc(OCC5COC(CSc6nncn6C)(c6ccc(Cl)cc6)O5)cc4)CC3)cc2)c1=O (stereo not drawn) [mitratapide, (−)-[2S-[2α,4α(S*)]]-4-[4-[4-[4-[[2-(4-chlorophenyl)-2-[[(4-methyl-4H-1,2,4-triazol-3-yl)thio]methy]-1,3-dioxolan-4-yl]methoxy]pheny]-1-piperazinyl]phenyl]-2,4-dihydro-2-(1-methylpropyl)-3H-1,2,4-triazol-3-one]
